Drawing on PubChem BioAssay AID1053134 (The Scripps Research Institute Molecular Screening Center, 2014), this text covers IC50 for 12 compounds.

Activity calls are given as the source filed them. The rule behind the calls is not given here. Some results are limits rather than exact numbers.

The IC50 is the concentration that gives 50% inhibition.

The test has as its target methionyl-tRNA synthetase (Trypanosoma brucei brucei). Nature of the test: inhibition of trypanosomal methionyl-tRNA synthetase – biochemical, fluorescence polarization, dose response, round 3, orthogonal assay for T. brucei MetRS inhibitor project, late-stage follow-up (AID 1053134). As to conditions: recombinant T. brucei MetRS. In general terms: Fluorescence polarisation rises when a labelled molecule tumbles more slowly, as on binding a larger partner.
Turning to `CCN(CC)C(=O)C(=O)c1cn(CC(=O)Nc2cc(Oc3ccccc3OC)cc(C(F)(F)F)c2)c2ccccc12`, the IC50 was 521 nM.

On to `CCN(CC)C(=O)C(=O)c1cn(CC(=O)Nc2cc(Oc3ccc(OC)cc3)cc(C(F)(F)F)c2)c2ccccc12`, for which the IC50 is 477 nM.

Consider `CCN(CC)C(=O)C(=O)c1cn(CC(=O)Nc2cc(Oc3ccccc3)cc(C(F)(F)F)c2)c2ccccc12`, for which the IC50 is 145 nM.

For the compound `CCN(CC)C(=O)C(=O)c1cn(CC(=O)Nc2cc(Oc3ccc(F)cc3)cc(C(F)(F)F)c2)c2ccccc12`, the IC50 was 632 nM.

For `Nc1c(Cl)ncnc1Nc1ccc(C(=O)O)cc1`, the IC50 was 8500 nM.

For the compound `CCN(CC)C(=O)Cc1cn(CC(=O)Nc2cccc(C(F)(F)F)c2)c2ccccc12`, the IC50 is > 119000 nM (inactive).

`CCN(CC)C(=O)C(=O)c1cn(CC(=O)Nc2cc(Oc3ccccc3F)cc(C(F)(F)F)c2)c2ccccc12`: the IC50 was 381 nM.

Consider `CCN(CC)C(=O)C(=O)c1cn(CCNc2cc(Oc3ccccc3)cc(C(F)(F)F)c2)c2ccccc12`, for which the IC50 was > 119000 nM (inactive).

With `CCN(CC)C(=O)C(=O)c1cn(CCNc2cccc(C(F)(F)F)c2)c2ccccc12`, the IC50 was > 119000 nM (inactive).

Consider `O=C(Cc1ccc(Nc2nc3ccc(Br)cc3[nH]2)cc1)NCCc1cccs1`, for which the IC50 entry is “inactive”.

In the case of `CCN(CC)C(=O)C(=O)c1cn(CC(=O)Nc2cccc(C(F)(F)F)c2)c2ccccc12`, the IC50 was 360 nM.

`O=C(Cn1cc(C(=O)C(=O)NCc2ccccc2)c2ccccc21)Nc1cc(Oc2ccccc2)cc(C(F)(F)F)c1`: the IC50 result was “inactive”.
